{"source": "PubChem BioAssay AID2060883", "about": "(Molecular Pharmacology Branch, DTP, NCI, 2025);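 also: viability read after seven days of compound exposure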", "test_system": "843782-103-R-J1-PDC complex spheroid viability", "experiment": "Anticancer human tumor 843782-103-R-J1-PDC patient-derived lung adenocarcinoma cell line growth inhibition [RAS]", "settings": "for IC50: curve of first compound; for viability, T/C: stronger effect = lower value", "how_it_was_run": "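Agents were tested in combination matrices in half-log decrements from a top concentration at or near clinical Cmax (10 microM if undetermined). Targets were multi-cell spheroids of tumour lines plus HUVEC and MSC stromal cells.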", "data": [{"smiles": "Cc1nc(N2CCC3(CC2)COC(C)C3N)c(CO)nc1Sc1ccnc(N)c1Cl", "note": "(configuration not stated) + CCn1c(-c2cccnc2C(C)OC)c2c3cc(ccc31)N1CCOC(CC(NC(=O)C(C(C)C)N(C)C(=O)C3(F)CCN(C(=O)C#CC(C)(C)N(C)C)CC3)C(=O)N3CCCC(N3)C(=O)OCC(C)(C)C2)C1", "values": [{"measurement": "IC50", "setting": "second compound 0.000949 µM", "value": 55, "unit": "nM"}, {"measurement": "IC50", "setting": "second compound 0.003 µM", "value": 50.4, "unit": "nM"}, {"measurement": "IC50", "setting": "second compound 0.00949 µM", "value": 53.8, "unit": "nM"}, {"measurement": "IC50", "setting": "second compound 0.03 µM", "value": 44.4, "unit": "nM"}, {"measurement": "IC50", "setting": "second compound 0.0949 µM", "value": 45.3, "unit": "nM"}, {"measurement": "IC50", "setting": "second compound 0.3 µM", "value": 36.9, "unit": "nM"}, {"measurement": "viability, T/C", "setting": "second compound 0.000949 µM, first compound 0.0316 µM", "value": 57.4, "unit": "%"}, {"measurement": "viability, T/C", "setting": "second compound 0.000949 µM, first compound 0.1 µM", "value": 43.4, "unit": "%"}, {"measurement": "viability, T/C", "setting": "second compound 0.000949 µM, first compound 0.316 µM", "value": 31.3, "unit": "%"}, {"measurement": "viability, T/C", "setting": "second compound 0.000949 µM, first compound 1 µM", "value": 21, "unit": "%"}, {"measurement": "viability, T/C", "setting": "second compound 0.000949 µM, first compound 3.16 µM", "value": 20.8, "unit": "%"}, {"measurement": "viability, T/C", "setting": "second compound 0.000949 µM, first compound 10 µM", "value": 17.4, "unit": "%"}, {"measurement": "viability, T/C", "setting": "second compound 0.003 µM, first compound 0.0316 µM", "value": 55.1, "unit": "%"}, {"measurement": "viability, T/C", "setting": "second compound 0.003 µM, first compound 0.1 µM", "value": 42, "unit": "%"}, {"measurement": "viability, T/C", "setting": "second compound 0.003 µM, first compound 0.316 µM", "value": 31.6, "unit": "%"}, {"measurement": "viability, T/C", "setting": "second compound 0.003 µM, first compound 1 µM", "value": 22.2, "unit": "%"}, {"measurement": "viability, T/C", "setting": "second compound 0.003 µM, first compound 3.16 µM", "value": 17.3, "unit": "%"}, {"measurement": "viability, T/C", "setting": "second compound 0.003 µM, first compound 10 µM", "value": 20.6, "unit": "%"}, {"measurement": "viability, T/C", "setting": "second compound 0.00949 µM, first compound 0.0316 µM", "value": 55.1, "unit": "%"}, {"measurement": "viability, T/C", "setting": "second compound 0.00949 µM, first compound 0.1 µM", "value": 44.2, "unit": "%"}, {"measurement": "viability, T/C", "setting": "second compound 0.00949 µM, first compound 0.316 µM", "value": 28.6, "unit": "%"}, {"measurement": "viability, T/C", "setting": "second compound 0.00949 µM, first compound 1 µM", "value": 21.3, "unit": "%"}, {"measurement": "viability, T/C", "setting": "second compound 0.00949 µM, first compound 3.16 µM", "value": 23.1, "unit": "%"}, {"measurement": "viability, T/C", "setting": "second compound 0.00949 µM, first compound 10 µM", "value": 16.4, "unit": "%"}, {"measurement": "viability, T/C", "setting": "second compound 0.03 µM, first compound 0.0316 µM", "value": 53.8, "unit": "%"}, {"measurement": "viability, T/C", "setting": "second compound 0.03 µM, first compound 0.1 µM", "value": 40.2, "unit": "%"}, {"measurement": "viability, T/C", "setting": "second compound 0.03 µM, first compound 0.316 µM", "value": 34.5, "unit": "%"}, {"measurement": "viability, T/C", "setting": "second compound 0.03 µM, first compound 1 µM", "value": 27.6, "unit": "%"}, {"measurement": "viability, T/C", "setting": "second compound 0.03 µM, first compound 3.16 µM", "value": 18.6, "unit": "%"}, {"measurement": "viability, T/C", "setting": "second compound 0.03 µM, first compound 10 µM", "value": 17.8, "unit": "%"}, {"measurement": "viability, T/C", "setting": "second compound 0.0949 µM, first compound 0.0316 µM", "value": 55.4, "unit": "%"}, {"measurement": "viability, T/C", "setting": "second compound 0.0949 µM, first compound 0.1 µM", "value": 37, "unit": "%"}, {"measurement": "viability, T/C", "setting": "second compound 0.0949 µM, first compound 0.316 µM", "value": 34.3, "unit": "%"}, {"measurement": "viability, T/C", "setting": "second compound 0.0949 µM, first compound 1 µM", "value": 24.1, "unit": "%"}, {"measurement": "viability, T/C", "setting": "second compound 0.0949 µM, first compound 3.16 µM", "value": 19.4, "unit": "%"}, {"measurement": "viability, T/C", "setting": "second compound 0.0949 µM, first compound 10 µM", "value": 23.6, "unit": "%"}, {"measurement": "viability, T/C", "setting": "second compound 0.3 µM, first compound 0.0316 µM", "value": 51.3, "unit": "%"}, {"measurement": "viability, T/C", "setting": "second compound 0.3 µM, first compound 0.1 µM", "value": 42.1, "unit": "%"}, {"measurement": "viability, T/C", "setting": "second compound 0.3 µM, first compound 0.316 µM", "value": 31.6, "unit": "%"}, {"measurement": "viability, T/C", "setting": "second compound 0.3 µM, first compound 1 µM", "value": 22.6, "unit": "%"}, {"measurement": "viability, T/C", "setting": "second compound 0.3 µM, first compound 3.16 µM", "value": 20.8, "unit": "%"}, {"measurement": "viability, T/C", "setting": "second compound 0.3 µM, first compound 10 µM", "value": 21.4, "unit": "%"}]}]}
